Reference: PubChem BioAssay (NCI)
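The compound was tested at five concentrations on cells cultured in 96-well plates, with a 48-hour exposure period. TGI is the concentration that stops growth completely.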

Key:
Experiment in all cases: NCI tumour cell line growth inhibition, 48 h
[1] = tested on: A549 NSCLC
[2] = tested on: CAKI-1 renal
[3] = tested on: COLO 205 colon
[4] = tested on: DMS 114 small cell lung
[5] = tested on: DMS 273 small cell lung
[6] = tested on: HCC-2998 colon
[7] = tested on: HCT-116 colon
[8] = tested on: HL-60(TB) leukemia
[9] = tested on: HOP-18 NSCLC
[10] = tested on: HOP-62 NSCLC
[11] = tested on: HOP-92 NSCLC
[12] = tested on: HT29 colon
[13] = tested on: K-562 leukemia
[14] = tested on: KM12 colon
[15] = tested on: KM20L2 colon
[16] = tested on: LOX IMVI melanoma
[17] = tested on: M19-MEL melanoma
[18] = tested on: MALME-3M melanoma
[19] = tested on: MCF7 breast
[20] = tested on: MOLT-4 leukemia
[21] = tested on: NCI-H226 lung
[22] = tested on: NCI-H23 lung
[23] = tested on: NCI-H460 lung
[24] = tested on: NCI-H522 lung
[25] = tested on: NCI/ADR-RES ovarian
[26] = tested on: OVCAR-3 ovarian
[27] = tested on: OVCAR-4 ovarian
[28] = tested on: OVCAR-5 ovarian
[29] = tested on: OVCAR-8 ovarian
[30] = tested on: P388 leukemia
[31] = tested on: P388/ADR leukemia
[32] = tested on: RPMI-8226 leukemia
[33] = tested on: RXF 393 renal
[34] = tested on: SF-268 CNS
[35] = tested on: SF-295 CNS
[36] = tested on: SF-539 CNS
[37] = tested on: SK-MEL-2 melanoma
[38] = tested on: SK-MEL-28 melanoma
[39] = tested on: SK-MEL-5 melanoma
[40] = tested on: SK-OV-3 ovarian
[41] = tested on: SN12C renal
[42] = tested on: SNB-78 CNS
[43] = tested on: SW-620 colon
[44] = tested on: U251 CNS
[45] = tested on: UACC-257 melanoma
[46] = tested on: UACC-62 melanoma
[47] = tested on: UO-31 renal
[48] = tested on: XF 498 CNS
[49] = tested on: 786-0 renal
[50] = tested on: A498 renal
[51] = tested on: ACHN renal
[52] = tested on: CCRF-CEM leukemia
[53] = tested on: DLD-1 colon
[54] = tested on: EKVX NSCLC
[55] = tested on: HCT-15 colon
[56] = tested on: IGROV1 ovarian
[57] = tested on: LXFL 529 NSCLC
[58] = tested on: M14 melanoma
[59] = tested on: RXF-631 renal
[60] = tested on: SNB-19 CNS
[61] = tested on: SNB-75 CNS
[62] = tested on: SR leukemia
[63] = tested on: TK-10 renal

## COC1=C(C)C(=O)C2=C(C1=O)[C@@H]1[C@@H]3Cc4c(OC(=O)CO)c(C)c(OC)c(O)c4[C@H](CNC(=O)C(C)=O)N3[C@@H](C#N)[C@H](C2)N1C
[1]
  TGI: 49 µM
[2]
  TGI: 7.87 µM
[3]
  TGI: < 0.0309 µM
[4]
  TGI: < 0.01 µM
[5]
  TGI: 0.065 µM
[6]
  TGI: 0.226 µM
[7]
  TGI: 12.1 µM
[8]
  TGI: 2.75 µM
[9]
  TGI: 0.0966 µM
[10]
  TGI: 1.16 µM
[11]
  TGI: < 0.0258 µM
[12]
  TGI: 10.6 µM
[13]
  TGI: 7.77 µM
[14]
  TGI: 2.05 µM
[15]
  TGI: 0.686 µM
[16]
  TGI: < 0.01 µM
[17]
  TGI: 0.0463 µM
[18]
  TGI: 0.351 µM
[19]
  TGI: 13.9 µM
[20]
  TGI: 0.173 µM
[21]
  TGI: 0.834 µM
[22]
  TGI: < 0.0176 µM
[23]
  TGI: 1.83 µM
[24]
  TGI: < 0.0139 µM
[25]
  TGI: 17.1 µM
[26]
  TGI: 0.0366 µM
[27]
  TGI: 0.484 µM
[28]
  TGI: 0.447 µM
[29]
  TGI: 0.684 µM
[30]
  TGI: 0.0205 µM
[31]
  TGI: 1.82 µM
[32]
  TGI: 0.389 µM
[33]
  TGI: 0.0392 µM
[34]
  TGI: 0.208 µM
[35]
  TGI: 2.28 µM
[36]
  TGI: 0.24 µM
[37]
  TGI: 0.0359 µM
[38]
  TGI: 1.2 µM
[39]
  TGI: 0.0393 µM
[40]
  TGI: 28.6 µM
[41]
  TGI: 10.8 µM
[42]
  TGI: 0.998 µM
[43]
  TGI: 3.24 µM
[44]
  TGI: 4.09 µM
[45]
  TGI: 0.0364 µM
[46]
  TGI: < 0.0368 µM
[47]
  TGI: 0.362 µM
[48]
  TGI: < 0.01 µM

## O=S1c2ccccc2N=C(c2cccc3ccccc23)CC1c1cccc2ccccc12 (stereo not drawn)
[49]
  TGI: 76.6 µM
[50]
  TGI: 39.2 µM
[1]
  TGI: 36.7 µM
[51]
  TGI: 56.4 µM
[2]
  TGI: 71.2 µM
[52]
  TGI: 49.1 µM
[3]
  TGI: 37.6 µM
[53]
  TGI: 62.8 µM
[4]
  TGI: 34.8 µM
[5]
  TGI: > 100 µM
[54]
  TGI: 84.1 µM
[6]
  TGI: 31.8 µM
[7]
  TGI: 39.3 µM
[55]
  TGI: 32 µM
[8]
  TGI: 30.5 µM
[9]
  TGI: 25.2 µM
[10]
  TGI: > 100 µM
[12]
  TGI: 49.5 µM
[56]
  TGI: 34 µM
[13]
  TGI: 60.5 µM
[14]
  TGI: 32 µM
[15]
  TGI: > 100 µM
[16]
  TGI: 27.9 µM
[57]
  TGI: 33.6 µM
[58]
  TGI: 28.1 µM
[17]
  TGI: 4.33 µM
[18]
  TGI: 37.4 µM
[20]
  TGI: 55.3 µM
[21]
  TGI: 42.2 µM
[22]
  TGI: 39.1 µM
[23]
  TGI: 40.6 µM
[24]
  TGI: 30 µM
[26]
  TGI: 40.5 µM
[27]
  TGI: 27.8 µM
[28]
  TGI: 58.3 µM
[29]
  TGI: 46.3 µM
[32]
  TGI: 50.9 µM
[33]
  TGI: 38.7 µM
[59]
  TGI: > 100 µM
[34]
  TGI: 57.5 µM
[35]
  TGI: 71.2 µM
[36]
  TGI: 40.6 µM
[37]
  TGI: 40.9 µM
[38]
  TGI: 20.6 µM
[39]
  TGI: 19.9 µM
[40]
  TGI: > 100 µM
[41]
  TGI: 30.5 µM
[60]
  TGI: 66.7 µM
[61]
  TGI: 49.1 µM
[42]
  TGI: > 100 µM
[62]
  TGI: 49.2 µM
[43]
  TGI: 37.5 µM
[63]
  TGI: 89.3 µM
[44]
  TGI: 37.7 µM
[45]
  TGI: 31.2 µM
[46]
  TGI: 26.4 µM
[47]
  TGI: 67.8 µM
[48]
  TGI: 37.5 µM

## CCCCCCCCCCC(=O)CC(=O)c1c(O)cccc1O
[49]
  TGI: > 100 µM
[50]
  TGI: > 100 µM
[1]
  TGI: > 100 µM
[51]
  TGI: 91.3 µM
[2]
  TGI: > 100 µM
[3]
  TGI: > 100 µM
[53]
  TGI: > 100 µM
[4]
  TGI: 72 µM
[5]
  TGI: 58.2 µM
[54]
  TGI: > 100 µM
[6]
  TGI: > 100 µM
[7]
  TGI: 41.8 µM
[55]
  TGI: > 100 µM
[8]
  TGI: 37.3 µM
[9]
  TGI: 98.7 µM
[10]
  TGI: 72.9 µM
[11]
  TGI: 82 µM
[12]
  TGI: > 100 µM
[56]
  TGI: > 100 µM
[13]
  TGI: 81.3 µM
[14]
  TGI: > 100 µM
[15]
  TGI: > 100 µM
[16]
  TGI: 37 µM
[57]
  TGI: > 100 µM
[58]
  TGI: > 100 µM
[17]
  TGI: 67.1 µM
[18]
  TGI: > 100 µM
[20]
  TGI: 59 µM
[21]
  TGI: 63.6 µM
[22]
  TGI: 81.7 µM
[23]
  TGI: > 100 µM
[24]
  TGI: 90.4 µM
[26]
  TGI: 63.7 µM
[27]
  TGI: > 100 µM
[28]
  TGI: 49.1 µM
[29]
  TGI: > 100 µM
[32]
  TGI: 50.2 µM
[33]
  TGI: 72.5 µM
[59]
  TGI: > 100 µM
[34]
  TGI: > 100 µM
[35]
  TGI: > 100 µM
[36]
  TGI: > 100 µM
[38]
  TGI: > 100 µM
[39]
  TGI: 72.8 µM
[40]
  TGI: > 100 µM
[41]
  TGI: > 100 µM
[60]
  TGI: > 100 µM
[61]
  TGI: > 100 µM
[42]
  TGI: > 100 µM
[62]
  TGI: > 100 µM
[43]
  TGI: > 100 µM
[63]
  TGI: > 100 µM
[44]
  TGI: 69.5 µM
[45]
  TGI: 96 µM
[46]
  TGI: > 100 µM
[47]
  TGI: 85.9 µM
[48]
  TGI: 46.2 µM
